Measured values: the supplement of paper PMC10307832

Tests used:
Assay in all cases: relative viability (nuclei count vs DMSO), 5 days (fraction); higher = more cells survive
CUDC-101 + Luminespib = compound: C#Cc1cccc(Nc2ncnc3cc(OC)c(OCCCCCCC(=O)NO)cc23)c1 [CUDC-101] + CCNC(=O)c1noc(-c2cc(C(C)C)c(O)cc2O)c1-c1ccc(CN2CCOCC2)cc1 [Luminespib] (partner 0.01 µM)
Method in brief: (§1)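 Relative viability is defined as nuclei in treated wells over nuclei in vehicle wells. Duplicate plates were run and medians reported. Lung cancer cell lines in 1536-well plates were dosed by pin tool one day after seeding, with one drug or with a fixed anchor-drug dose plus five library-drug doses (not always all listed) in √10 steps, and nuclei were counted after 5 days.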

CUDC-101 + Phenformin = compound: C#Cc1cccc(Nc2ncnc3cc(OC)c(OCCCCCCC(=O)NO)cc23)c1 [CUDC-101] + N=C(N)NC(=N)NCCc1ccccc1 [Phenformin] (partner 250 µM)
Method in brief: as §1

Vandetanib + Palbociclib = compound: COc1cc2/c(=N/c3ccc(Br)cc3F)nc[nH]c2cc1OCC1CCN(C)CC1 [Vandetanib] + CC(=O)c1c(C)c2cnc(Nc3ccc(N4CCNCC4)cn3)nc2n(C2CCCC2)c1=O [Palbociclib] (partner 0.5 µM)
Method in brief: as §1

Vandetanib + Dasatinib = compound: COc1cc2/c(=N/c3ccc(Br)cc3F)nc[nH]c2cc1OCC1CCN(C)CC1 [Vandetanib] + Cc1nc(Nc2ncc(C(=O)Nc3c(C)cccc3Cl)s2)cc(N2CCN(CCO)CC2)n1 [Dasatinib] (partner 0.075 µM)
Method in brief: as §1

| Cell Line | relative viability (CUDC-101 + Luminespib; first compound 0.01 µM) | relative viability (CUDC-101 + Luminespib; first compound 0.03162 µM) | relative viability (CUDC-101 + Luminespib; first compound 0.1 µM) | relative viability (CUDC-101 + Luminespib; first compound 0.3162 µM) | relative viability (CUDC-101 + Luminespib; first compound 1 µM) | relative viability (CUDC-101 + Phenformin; first compound 0.01 µM) | relative viability (CUDC-101 + Phenformin; first compound 0.03162 µM) | relative viability (CUDC-101 + Phenformin; first compound 0.1 µM) | relative viability (CUDC-101 + Phenformin; first compound 0.3162 µM) | relative viability (CUDC-101 + Phenformin; first compound 1 µM) | relative viability (Vandetanib + Palbociclib; first compound 0.02 µM) | relative viability (Vandetanib + Palbociclib; first compound 0.06325 µM) | relative viability (Vandetanib + Palbociclib; first compound 0.2 µM) | relative viability (Vandetanib + Palbociclib; first compound 0.6325 µM) | relative viability (Vandetanib + Palbociclib; first compound 2 µM) | relative viability (Vandetanib + Dasatinib; first compound 0.02 µM) | relative viability (Vandetanib + Dasatinib; first compound 0.06325 µM) | relative viability (Vandetanib + Dasatinib; first compound 0.2 µM) | relative viability (Vandetanib + Dasatinib; first compound 0.6325 µM) | relative viability (Vandetanib + Dasatinib; first compound 2 µM) |
| --- | --- | --- | --- | --- | --- | --- | --- | --- | --- | --- | --- | --- | --- | --- | --- | --- | --- | --- | --- | --- |
| NCI-H3122 | 0.118 | 0.0939 | 0.0988 | 0.112 | 0.0815 | 0.382 | 0.361 | 0.389 | 0.356 | 0.338 | 0.198 | 0.183 | 0.126 | 0.178 | 0.228 | 0.683 | 0.673 | 0.122 | 0.76 | 0.797 |
| PC-3 [JPC-3] | 0.739 | 0.648 | 0.64 | 0.563 | 0.301 | 0.484 | 0.486 | 0.362 | 0.402 | 0.351 | 0.509 | 0.527 | 0.592 | 0.553 | 0.464 | 0.952 | 0.865 | 0.954 | 0.497 | 0.571 |
| PC-14 | 0.133 | 0.208 | 0.16 | 0.115 | 0.114 | 0.854 | 0.476 | 0.22 | 0.193 | 0.0975 | 0.536 | 0.436 | 0.0488 | 0.117 | 0.0605 | 0.246 | 0.136 | 0.0576 | 0.0422 | 0.0429 |
| RERF-LC-KJ | 1.36 | 1.3 | 1.25 | 1.18 | 0.794 | 0.419 | 0.441 | 0.418 | 0.387 | 0.387 | 1.05 | 1.03 | 0.673 | 0.993 | 0.869 | 0.767 | 0.868 | 0.756 | 0.758 | 0.683 |
| SK-LU-1 | 0.188 | 0.203 | 0.213 | 0.206 | 0.216 | 0.497 | 0.441 | 0.576 | 0.593 | 0.493 | 0.387 | 0.314 | 0.363 | 0.376 | 0.354 | 0.195 | 0.151 | 0.184 | 0.18 | 0.173 |
| SK-MES-1 | 0.854 | 0.72 | 0.755 | 0.567 | 0.52 | 0.705 | 0.679 | 0.705 | 0.606 | 0.57 | 0.349 | 0.292 | 0.243 | 0.332 | 0.294 | 0.358 | 0.33 | 0.347 | 0.27 | 0.286 |
| SW 900 | 0.168 | 0.181 | 0.185 | 0.157 | 0.174 | 0.666 | 0.538 | 0.687 | 0.499 | 0.643 | 0.624 | 0.547 | – | 0.48 | 0.409 | 0.445 | 0.57 | 0.537 | 0.641 | 0.409 |
| SW 1573 | 0.238 | 0.252 | 0.516 | 0.187 | 0.164 | 0.407 | 0.356 | 0.484 | 0.371 | 0.304 | 0.413 | 0.421 | – | 0.29 | 0.403 | 0.449 | 0.577 | 0.598 | 0.441 | 0.674 |
